One block for each compound: values may come before it.
Tests used:
[1] = Pharmacokinetic evaluation in male CD-1 mice (IV 0.5 mg/kg, PO 2 mg/kg), plasma LC/MS/MS; type: in vivo
Description: Assay purpose: The pharmacokinetic properties of the compounds of the present disclosure were studied in mice.
Each assay compound was mixed with DMAC respectively, and vortexed for 2 minutes. The solution of the assay compound in DMAC was mixed and vortexed for 2 minutes to prepare a clear solution of 10 mg/mL. 0.0600 mL of 10 mg/mL solution was added to 0.300 mL of Solutol, and the mixture was vortexed for 2 minutes. Then 2.400 mL of normal saline was added, and the mixture was vortexed for 2 minutes to obtain a clear solution of 0.2 mg/mL, which was used for administration in PO group. 0.500 mL of the solution for administration in PO group was vortexed for 2 minutes, and 0.0500 mL of DMAC was added. The mixture was vortexed for 2 minutes, and then 0.0500 mL of solutol was added. The mixture was vortexed for 2 minutes, and finally 0.400 mL of normal saline was added. The mixture was vortexed for two minutes to give a clear solution of 0.1 mg/mL, which was filtered through a microporous membrane to give a solution for administration in injection (IV) group.
Four male CD-1 mice were divided into two groups. The animals in the first group were administered intravenously once at a dose of 0.5 mg/kg, wherein the vehicle was 10% DMAC/10% Solutol/80% normal saline, and the administration volume was 5 mL/kg. The animals in the second group were administered orally 2 mg/kg of the assay compound by oral gavage, wherein the oral vehicle was 10% DMAC/10% Solutol/80% normal saline, and the oral volume was 10 mL/kg. Whole blood was collected at 0.033 (IV injection only), 0.083, 0.25, 0.5, 1, 2, 4 and 12 hours post-dose. The whole blood was centrifuged at 3200 g at 2-8 °C for 10 min to obtain plasma. The concentration of the assay compound in plasma was determined by LC/MS/MS method, and the pharmacokinetic parameters were calculated by Phoenix WinNonlin software.
The parameters have the following meanings: IV: intravenous injection; PO: oral administration; C0: initial plasma concentration; Cmax: maximum drug concentration in the systemic circulation; Tmax: time required to reach Cmax; T1/2: half-life; Vdss: apparent volume of distribution; Cl: clearance rate; AUC0-last: area under the plasma drug concentration-time curve.

[2] = Solid stability testing of the crystal form B (influencing factors: high temperature, high humidity, light; accelerated 40 °C/75% RH; long-term 25 °C/60% RH); type: physicochemical
[3] = Hygroscopicity study by dynamic vapor sorption (DVS); type: physicochemical; details: 25 °C/80% RH
Description: Instrument model: SMS DVS intrinsic plus dynamic vapor sorption instrument. Detailed DVS parameters are as follows: • Temperature: 25 °C; • Protective gas and flow rate: nitrogen, 200 mL/min; • dm/dt=0.002%/min; • RH (%) test gradient: 10% RH; • Minimum dm/dt balance time: 10 min; • Maximum balance time: 180 min; • Range of RH (%) test gradient: 0% to 95%.
The classification of hygroscopicity evaluation is as follows: • Absorbing enough water and forming a liquid: deliquescence; ΔW %≥15%: very hygroscopic; 15%>ΔW %≥2%: hygroscopic; 2%>ΔW %≥0.2%: slightly hygroscopic; ΔW %<0.2%: Not or almost not hygroscopic. ΔW % represents the weight increase of a test sample by moisture absorption at 25±1 °C and 80±2% RH.
The test was performed using SMS DVS intrinsic plus dynamic vapor sorption instrument.

[4] = Solid stability testing of the crystal form B (influencing factors: high temperature, high humidity, light; accelerated 40 °C/75% RH; long-term 25 °C/60% RH); type: physicochemical; remark: listed apart in the source
Excerpt: Influencing factor testing: unless otherwise specified, each sample was placed in an open weighing bottle, which was placed in the corresponding storage container to investigate the stability at the time points of 5 and 10 days. The photostability testing complied with the requirements of ICH Q1B: the illuminated sample was exposed to visible light and ultraviolet light; storage conditions: the sample was illuminated at 5000±500 lux (visible light) and 90 μw/cm^2 (UV) for 5 days and 10 days. The total illumination received by the sample after 10 days was not less than 1.2×10^6 Lux·h, and the near-ultraviolet energy was not less than 200 w·h/m^2. The illuminated sample was placed in a clean weighing bottle, and spread out into a single layer without being covered by anything. The weighing bottle was uncovered and placed in an illumination box for illumination. The control sample was packaged in the same way as the illuminated sample, but the weighing bottle was covered with aluminum film. Long-term and accelerated testing: each sample was placed in a double-layer LDPE bag, respectively, and each layer of the LDPE bag was sealed with a buckle. Then, the sample was placed in an aluminum foil bag, which was heat-sealed. The sample was placed for 1, 2 and 3 months in the accelerated testing, and placed for 3 months under the long-term condition. XRPD analysis was performed on all the stability samples to test the changes in the crystal forms.
25 mg of a sample was taken, weighed accurately, and placed in a 10 mL volumetric flask. 6 mL of acetonitrile was added and the sample was dissolved by ultrasound. The mixture was cooled to room temperature, and water was added to the scale marker. The mixture was shaken well, and the sample was dissolved to give a solution with a concentration of approximately 2.5 mg/mL. The liquid phase was used for sample injection analysis. The test results were compared with the initial test results on day 0.

[5] = Accelerated (40 °C, 75% relative humidity, uncovered), 1 month
[6] = Accelerated (40 °C, 75% relative humidity, uncovered), 2 months
[7] = Accelerated (40 °C, 75% relative humidity, uncovered), 3 months
[8] = Light-shielding control group, placed with visible light + UV light, wrapped with tin foil
[9] = Long term (25 °C, 60% relative humidity, uncovered), 3 months
[10] = High humidity (25 °C, 92.5% relative humidity, uncovered), 10 days
[11] = High temperature (60 °C, uncovered), 10 days
[12] = Visible light + UV (ICH conditions), total illumination of visible light reaching 1200000 Lux·h, UV reaching 200 w·h/m^2

AUC0-last ([1]; IV (0.5 mg/kg)): 48.307 µM·h
Cl (clearance rate) ([1]; IV (0.5 mg/kg)): 0.332 mL/min/kg
T1/2 ([1]; IV (0.5 mg/kg)): 5.66 h
Vdss (apparent volume of distribution) ([1]; IV (0.5 mg/kg)): 0.159 L/kg
C0 ([1]; IV (0.5 mg/kg), read-out: C0 (initial plasma concentration)): 13.5 µM
AUC0-last ([1]; PO (2 mg/kg)): 142.824 µM·h
Bioavailability ([1]; PO (2 mg/kg)): 95.3%
Cmax ([1]; PO (2 mg/kg)): 25.8 µM
T1/2 ([1]; PO (2 mg/kg)): 5.03 h
Tmax ([1]; PO (2 mg/kg)): 30 min
Structure (SMILES): O=C(O)c1scc2[nH]c(=O)n(-c3cc4c(cc3F)OCCCOc3ccc(F)c(F)c3CO4)c(=O)c12 [Compound of formula (I)]

Crystal form ([2]; 0 day (initial)): form B
Crystal form [2, 5]: form B
Purity (HPLC) [2, 5]: 99.4%
Crystal form [2, 6]: form B
Purity (HPLC) [2, 6]: 99.4%
Crystal form [2, 7]: form B
Purity (HPLC) [2, 7]: 99.4%
Crystal form [2, 8]: form B
Purity (HPLC) [2, 8]: 99.4%
Crystal form [2, 9]: form B
chemical stability ([2]; conclusion in words, all stability conditions): good chemical stability
hygroscopicity [3]: slightly hygroscopic (2%>ΔW %≥0.2%)
ΔW % ([3]; DVS): 0.535%
Purity (HPLC) ([4]; 0 day (initial)): 99.4%
Crystal form [4, 10]: form B
Purity (HPLC) [4, 10]: 99.4%
Crystal form [4, 11]: form B
Purity (HPLC) [4, 11]: 99.4%
Purity (HPLC) [4, 9]: 99.4%
Crystal form [4, 12]: form B
Purity (HPLC) [4, 12]: 99.4%
change of purity and crystalline form ([4]; all stability conditions (high temperature, high humidity, illumination, long-term and accelerated)): did not change significantly
Structure (SMILES): O=C(O)c1scc2[nH]c(=O)n(-c3cc4c(cc3F)OCCCOc3ccc(F)c(F)c3CO4)c(=O)c12

Source: patent US20260347370A1, “SALT TYPE AND CRYSTAL FORM OF THIENOPYRIMIDINONE DERIVATIVE” (CMS RESEARCH & DEVELOPMENT PTE. LTD., priority 2022, published 2026)
